One may read the Ki as the dissociation constant of the complex between target and ligand, obtained from inhibition or displacement. Read a high Ki as weaker binding. The IC50 is the concentration at which inhibition is half-maximal.

For one test, the target named is GSK-3β (AA 1-420) (Homo sapiens (Human), UniProt P49841). The test is described as follows: GSK-3 inhibition assay (standard coupled enzyme system). The note with it: 20 μM ATP, 300 μM peptide, 20 nM GSK-3β, 30° C. It is filed as biochemical. On the procedure: Compounds of the present invention were screened for their ability to inhibit GSK-3β (AA 1-420) activity using a standard coupled enzyme system (Fox et al., Protein Sci. 1998, 7, 2249). Reactions were carried out in a solution containing 100 mM HEPES (pH 7.5), 10 mM MgCl2, 25 mM NaCl, 300 μM NADH, 1 mM DTT and 1.5% DMSO. Final substrate concentrations in the assay were 20 μM ATP (Sigma Chemicals, St Louis, Mo.) and 300 μM peptide (American Peptide, Sunnyvale, Calif.). Reactions were carried out at 30° C. and 20 nM GSK-3β. Final concentrations of the components of the coupled enzyme system were 2.5 mM phosphoenolpyruvate, 300 μM NADH, 30 μg/ml pyruvate kinase and 10 μg/ml lactate dehydrogenase.
Chain of GSK-3β (AA 1-420) (P49841 whole entry, species assumed, the tested form may be a part): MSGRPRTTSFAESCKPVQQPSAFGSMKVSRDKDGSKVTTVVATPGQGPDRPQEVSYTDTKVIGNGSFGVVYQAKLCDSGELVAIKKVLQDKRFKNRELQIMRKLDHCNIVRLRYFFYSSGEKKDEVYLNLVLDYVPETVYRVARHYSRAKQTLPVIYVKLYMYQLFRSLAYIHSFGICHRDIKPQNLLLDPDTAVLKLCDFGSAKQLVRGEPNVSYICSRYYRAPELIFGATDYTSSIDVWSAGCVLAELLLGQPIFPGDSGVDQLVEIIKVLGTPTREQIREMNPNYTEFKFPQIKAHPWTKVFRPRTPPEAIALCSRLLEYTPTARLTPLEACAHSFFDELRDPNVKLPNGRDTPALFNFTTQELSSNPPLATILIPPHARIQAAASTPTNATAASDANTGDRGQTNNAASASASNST
An assay stock buffer solution was prepared containing all of the reagents listed above with the exception of ATP and the test compound of the present invention. The assay stock buffer solution (175 μl) was incubated in a 96 well plate with 5 μl of the test compound of the present invention at final concentrations spanning 0.002 μM to 30 μM at 30° C. for 10 min. Typically, a 12-point titration was conducted by preparing serial dilutions (from 10 mM compound stocks) with DMSO of the test compounds of the present invention in daughter plates. The reaction was initiated by the addition of 20 μl of ATP (final concentration 20 μM). Rates of reaction were obtained using a Molecular Devices Spectramax plate reader (Sunnyvale, Calif.) over 10 min at 30° C. The Ki values were determined from the rate data as a function of inhibitor concentration.

The test system of test [1] is β-catenin dependent TCF/LEF transcriptional activity. As to the kind of experiment: β-catenin stabilization protocol (β-lactamase reporter assay in Jurkat cells). Conditions: Homo sapiens, 460/530 ratio, 50% of the maximum effect, read-out: Beta Catenin IC50. Type of test: cell-based. An excerpt:
GSK-3 phosphorylation of β-catenin targets it to the proteosome for degradation. Inhibition of GSK-3 results in accumulation of β-catenin in the cytosol of cells which through interaction with the transcription factor TCF/LEF translocates to the nucleus and drives the transcription of Wnt-dependent genes. The assay is designed to determine the level of β-catenin dependent TCF/LEF transcriptional activity in a quantitative manner through the use of a β-lactamase reporter assay in Jurkat cells dosed with a compound.
Jurkat β-catenin cells are starved overnight in assay media (1% FBS, 1× Penstrep, RPMI) in the flask. The next day Jurkat β-catenin cells are seeded in 96 well flat bottom plates at a density of 50,000 cells/well in assay media in a volume of 100 ul. The compound is added to the well at a final DMSO concentration of 0.75% and incubated at 37° C. o/n. The next day, 20 uL of 6× CCF4 dye is added to the wells and incubated at room temperature for 1-2 hours. Plates are read on the Cytofluor 4000 series multiwell plate reader and the 460/530 ratio is determined.
In general terms: Reporter assays use an easily measured gene product as a stand-in for the process of interest.

For the next test, the target named is GSK3β TYR 216 (Homo sapiens (Human), UniProt P49841). As to the kind of experiment: GSK3β p-TYR inhibition assay (western blotting of Jurkat cells). Type of test: cell-based. Conditions: compound incubated o/n, western blot, read-out: GSK3b pTYR 216: IC50. The procedure:
(§1) Compounds are screened for their ability to inhibit the phosphorylation of tyrosine (TYR) residues through the use of western blotting of Jurkat cells dosed with the compounds. The phosphorylation of the specific TYR residues tested are GSK3α TYR 279 and GSK3β TYR 216.
(§2) Jurkat cells are seeded at a density of 2×10^5 cells/well in a 12 well dish in starvation media (RPMI+1% FBS+P/S). Following starvation for 16 hours, the compound is dosed into each well at a final DMSO concentration of 0.3% and cells are incubated o/n at 37° C. 5% CO2. The next day, cells are spun down at 1500 rpm, washed with PBS, and lysed in 100 uL Laemli sample buffer with β-mercaptoethanol.
(§3) 15 microliters (uL) of cell lysates are loaded onto a 10% tris-glycine gel and run at 120 v for 2 hours or until dye front runs off of the gel. The protein is then transferred onto a PVDF membrane at 100 v for 60 min. PBST (PBS containing 0.1% Tween 20, such as 1 ml Tween per 1 L of PBS) is then made up and used for all washes and antibody incubations. The blot is blocked in 5% nonfat milk PBST for one hour.
(§4) The primary antibody (GSK-3α/β pTYR 279/216 at 1:1000 dilution Upstate cat #05-413) is then added in 5%-nonfat milk PBST overnight at 4° C. with gentle rocking. The blot is then washed in PBST for 5 min. This is then repeated 4 times. A secondary anti-mouse-HRP conjugated antibody (1:5000 dilution) is added for 60 min in 5% milk PBST. The blot is then washed in PBST for 5 min. This is also repeated 4 times. 3.0 mL of the developing solution (ECL plus Western Blotting Detection System from Amersham/GE cat # RPN2132) is made and then added. The solution is swirled over the blot for ˜30 sec. The blot is then developed using CL-Xposure clear blue X-ray film. GAPDH expression level is used as a loading control, (GAPDH antibody: santa cruz 25-778) at 1:10000 dilution.
(§5) For determination of GSK-3α and GSK-3β pTYR IC50, the density of the respective bands for each protein at specific compound concentration is compared to a no compound DMSO treated control cell sample present on each exposure.

The next test concerns the target GSK3α TYR 279 (Homo sapiens (Human), UniProt P49840). The test is described as follows: GSK-3α p-TYR inhibition assay (western blotting of Jurkat cells). It is filed as cell-based. The note with it: compound incubated o/n, western blot, read-out: GSK3a pTYR 279: IC50. On the procedure: as §1, §2, §3, §4, §5
A general note: Immunoblotting shows a protein as a band on a membrane.

A further test deals with amyloid-β peptides. Conditions: mice over-expressing APP, treated over a three-week period; cited from earlier work.
Test [2] has as its system infarct size in rat brains. The note with it: after transient MCAO in rats; cited from earlier work.

Chain of GSK3α TYR 279 (P49840 whole entry): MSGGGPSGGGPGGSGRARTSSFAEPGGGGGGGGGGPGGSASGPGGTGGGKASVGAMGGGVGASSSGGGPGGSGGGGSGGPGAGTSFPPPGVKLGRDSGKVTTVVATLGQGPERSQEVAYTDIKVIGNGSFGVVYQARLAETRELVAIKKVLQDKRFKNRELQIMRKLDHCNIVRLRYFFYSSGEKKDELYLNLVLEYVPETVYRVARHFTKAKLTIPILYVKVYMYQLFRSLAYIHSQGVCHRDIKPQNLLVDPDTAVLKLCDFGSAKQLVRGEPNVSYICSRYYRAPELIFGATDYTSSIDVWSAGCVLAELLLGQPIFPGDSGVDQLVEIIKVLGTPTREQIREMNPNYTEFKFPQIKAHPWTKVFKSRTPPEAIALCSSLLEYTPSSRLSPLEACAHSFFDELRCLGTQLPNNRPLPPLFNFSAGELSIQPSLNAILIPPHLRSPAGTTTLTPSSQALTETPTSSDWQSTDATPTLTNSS
Chain of GSK3β TYR 216 (P49841 whole entry): as the sequence (P49841 whole entry, species assumed, the tested form may be a part) above

`CN1CCN(c2cc(Nc3n[nH]c4ccc(F)cc34)nc(C3CCCCC3)n2)CC1` [Compound I-2]: the Ki at GSK-3β (AA 1-420) lay in the range of 25 to 500 nM.
On to `Cc1cc(Nc2n[nH]c3ccc(F)cc23)nc(C2CCOCC2)n1` [Compound I-15], for which the IC50 was 4830 nM in test [1], 200 nM on GSK3β TYR 216 and 30 nM at GSK3α TYR 279. On GSK-3β (AA 1-420), this compound showed a Ki of 25 to 500 nM.
On to `Cc1cc(Nc2n[nH]c3ccc(F)cc23)nc(C2CCCC2)n1` [Compound I-14], for which the Ki at GSK-3β (AA 1-420) was < 25 nM.
For `Cc1nc(C2CCCCC2)nc(Nc2n[nH]c3ncc(F)cc23)c1C` [Compound I-3], the IC50 in test [1] came out at 3700 nM; on GSK3β TYR 216, 13 nM; at GSK3α TYR 279, 0.7 nM. Further, the Ki at GSK-3β (AA 1-420) is < 25 nM.
Take `Cc1cc(Nc2n[nH]c3ncc(F)cc23)nc(C2CCCC2)n1` [Compound I-9]: the results for the IC50 (in test [1]; at GSK3β TYR 216; at GSK3α TYR 279) were 1400 nM, 48 nM and 2 nM, respectively.
On the same counts, the results for `Cc1cc(Nc2n[nH]c3ccc(F)cc23)nc(C2CCCCC2)n1` [Compound I-23] are 1100 nM, 25 nM and 2 nM.
On to `Cc1nc(Nc2n[nH]c3ncc(F)cc23)cc(C2CCC(F)(F)CC2)n1` [Compound I-4], for which the figures for the IC50 (in test [1]; on GSK3β TYR 216; on GSK3α TYR 279) were 210 nM, 20 nM and 1 nM, respectively. On GSK-3β (AA 1-420), the inhibition constant (Ki) was < 25 nM.
For `CC(C)(O)c1cc(Nc2n[nH]c3ncc(F)cc23)nc(C2CCCCC2)n1` [Compound I-21], the IC50 in test [1] was found to be 1000 nM; on GSK3β TYR 216, 20 nM; on GSK3α TYR 279, 3 nM.
Consider `[Li]` [lithium], for which, in the test with amyloid-β peptides, the “decrease in amyloid-β peptide tissue levels” value is given as > 50%.
For `Cc1cc(Nc2n[nH]c3ncc(F)cc23)nc(C2CCCCCC2)n1` [Compound I-8], the 50% inhibitory concentration (IC50) in test [1] was 600 nM; at GSK3β TYR 216 it was 10 nM; on GSK3α TYR 279 it was 0.3 nM.
“IGF-1: insulin growth factor-1, a known GSK-3 inhibitor”: the “infarct size in rat brains” value in test [2] is recorded as “reduced infarct size”.
As for `Fc1cnc2[nH]nc(Nc3cc(Cl)nc(C4CCCCC4)n3)c2c1` [Compound I-1], the inhibition constant (Ki) on GSK-3β (AA 1-420) is < 25 nM.
Regarding `Cc1nc(C2CCOCC2)nc(Nc2n[nH]c3ncc(F)cc23)c1C` [Compound I-5], the IC50 was > 10000 nM in test [1], 800 nM on GSK3β TYR 216 and 30 nM on GSK3α TYR 279.
Taken in the same sequence, the figures for `Cc1cc(Nc2n[nH]c3ncc(F)cc23)nc(C2CCOCC2)n1` [Compound I-17] were 110 nM, 30 nM and 3 nM.
On the same counts, the results for `Cc1cc(Nc2n[nH]c3ncc(F)cc23)nc(C2CCCCC2)n1` [Compound I-10] are 400 nM, 6 nM and 0.5 nM.
Compound `Cc1cc(Nc2n[nH]c3ncc(F)cc23)nc(C2CC2)n1` [Compound I-20] showed a Ki at GSK-3β (AA 1-420) of 25 to 500 nM.
As for `Cc1cc(Nc2n[nH]c3ncc(F)cc23)nc([C@H]2CCCC[C@@H]2C)n1` [Compound I-18], the IC50 came to 2400 nM in test [1], 300 nM on GSK3β TYR 216 and 1 nM at GSK3α TYR 279.

Values taken from patent US8664219B2, “Aminopyrimidines useful as inhibitors of protein kinases” (Vertex Pharmaceuticals Incorporated, priority 2007, dated 2014).
